Measurements from PMC11880385 (Nature Communications, 2025).
≈ marks a conversion by molar mass, not a printed value. Entries after “also recorded” stand apart in the source; their conditions may differ.

Columns and labels:
C. albicans (CaSS1) = assay: C. albicans growth inhibition, two-fold dose-response assay; conditions: for MIC80: Candida albicans, 48 h, read-out: C. albicans MIC80; for whole-cell antifungal activity against C. albicans / concentration at which bioactivity was retained: 5% CO2
[1] = target: T1, C. albicans Yck2 kinase domain (Candida albicans, UniProt A0A1D8PKB4); assay: biochemical; type: biochemical; conditions: for CaYck2 IC50: two-fold dose-response up to 1 µM, ATP 20 μM (Km)
T1 sequence (A0A1D8PKB4 37-345): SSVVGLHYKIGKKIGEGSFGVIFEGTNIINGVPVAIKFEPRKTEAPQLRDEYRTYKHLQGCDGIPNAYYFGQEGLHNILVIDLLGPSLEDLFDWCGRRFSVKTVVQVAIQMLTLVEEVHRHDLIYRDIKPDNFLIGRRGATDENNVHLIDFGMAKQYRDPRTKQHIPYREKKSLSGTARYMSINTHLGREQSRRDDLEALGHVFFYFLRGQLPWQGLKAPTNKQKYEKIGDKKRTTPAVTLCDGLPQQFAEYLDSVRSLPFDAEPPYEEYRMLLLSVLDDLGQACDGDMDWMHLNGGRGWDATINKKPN

[2] = test system: C. albicans Yck2 kinase domain; assay: biochemical; type: biochemical, Candida albicans; conditions: Ratio of HsCK1α IC50 / CaYck2 IC50
human CK1α = human CK1α (Homo sapiens, UniProt P48729); assay: HsCK1α kinase inhibition assay; type: biochemical
human CK1α, sequence (P48729 whole entry): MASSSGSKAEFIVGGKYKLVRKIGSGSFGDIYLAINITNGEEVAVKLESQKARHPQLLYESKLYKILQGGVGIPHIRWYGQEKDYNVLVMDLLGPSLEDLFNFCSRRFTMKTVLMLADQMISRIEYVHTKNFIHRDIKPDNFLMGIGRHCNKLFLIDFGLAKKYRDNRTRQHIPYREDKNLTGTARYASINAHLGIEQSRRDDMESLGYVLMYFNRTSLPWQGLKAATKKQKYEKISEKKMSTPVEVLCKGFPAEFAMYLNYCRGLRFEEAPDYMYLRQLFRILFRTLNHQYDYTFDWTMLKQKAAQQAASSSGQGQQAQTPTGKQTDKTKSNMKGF

[3] = Mouse liver microsomal stability assay; conditions: mouse liver microsomes; for metabolic stability category: 30 minutes, 1 μM; for remaining at 0.5 h, 1 µM: mouse
[4] = test system: C. albicans (TEF1p-GFP) in J774A.1 cells; assay: Visualization of C. albicans filamentation in macrophages; conditions: 4 h incubation; 0.94, 7.5 or 30 µM
[5] = Plasma, kidney and brain exposure in mice; conditions: 50 mg/kg oral
[6] = Plasma pharmacokinetic profiling in mice; conditions: female, CD1, mouse, in vivo, po, 25 mg/kg, maximal plasma concentration (Cmax), 25 mg/kg p.o.
[7] = Tolerability on repeated oral dosing in uninfected mice; conditions: 25 mg/kg once daily over 3 days
[8] = test system: C. albicans (FKS1^T1922C/FKS1^T1922C Eno1-GFP); assay: HepG2 / C. albicans co-culture: fungal burden by GFP fluorescence
[9] = test system: J774A.1 cells infected with C. albicans (SC5314); assay: Macrophage killing assay; conditions: for macrophage viability in co-culture: 30 µM; for IC50: Mus musculus, J774.A1, 24 h, read-out: IC50 of rescuing macrophage viability
[10] = test system: echinocandin-resistant C. albicans strain (DPL15; FKS1^T1922C/FKS1^T1922C); assay: Caspofungin potentiation dose-response assay in echinocandin-resistant strain; conditions: sub-inhibitory caspofungin (3 µg/mL); YPD, 30 °C, 48 h
HepG2-fLuc cells = assay: HepG2 / C. albicans co-culture: HepG2 survival by luminescence
[11] = test system: C. albicans (TEF1p-GFP) in co-culture with J774A.1 cells; assay: C. albicans growth in co-culture with macrophages; conditions: 16 h post-infection
Cryptococcus neoformans = conditions: cited from earlier work
C. auris = conditions: cited from earlier work
Aspergillus fumigatus = conditions: cited from earlier work
[12] = test system: Nakaseomyces glabratus (formerly referred to as Candida glabrata); conditions: cited from earlier work

Structure (SMILES)	MIC80 (C. albicans (CaSS1))	IC50 [1]	Fungal selectivity (fold) [2]	IC50 (human CK1α)	remaining at 0.5 h, 1 µM [3]	whole-cell antifungal activity against C. albicans (C. albicans (CaSS1); RPMI, 37 °C)	other results
Cc1ccn2c(-c3ccncc3)c(-c3ccc(F)cc3)nc2c1 [Compound 1a]	> 100 µM	630 nM	2.6 fold	1700 nM	0%		metabolic stability category [3]: unstable (compound concentration remaining in the microsomal suspension after incubation for 30 minutes was ≤ 50% of the starting concentration (1 μM))
COc1ccn2c(-c3ccncc3)c(-c3ccc(F)cc3)nc2c1 [Compound 1b]	50 µM (≈ 16 µg/mL)	260 nM	3.9 fold	1000 nM	2%	robust anti-C. albicans bioactivity	
CC(C)(C)c1ccn2c(-c3ccncc3)c(-c3ccc(F)cc3)nc2c1 [Compound 1c]	> 100 µM	700 nM	8.6 fold	6100 nM	67%		
CCc1ccn2c(-c3ccncc3)c(-c3ccc(F)cc3)nc2c1 [Compound 1d]	50 µM (≈ 15.9 µg/mL)	490 nM	3.5 fold	1700 nM	0%		concentration at which bioactivity was retained (C. albicans (CaSS1); RPMI, 37 °C): 50 µM
N#Cc1ccn2c(-c3ccncc3)c(-c3ccc(F)cc3)nc2c1 [Compound 1e]	50 µM (≈ 15.7 µg/mL)				80%	robust anti-C. albicans bioactivity	filamentation of C. albicans [4]: inhibited filamentation; brain penetration [5]: accumulated in brain tissue at levels higher than the systemic circulation; Cmax [6]: ~36 µM; changes in animal weight or behavior [7]: no changes in animal weight or behavior were observed; concentration clearing the majority of co-cultured C. albicans ([8]; 48 h co-culture with HepG2): 6.25 µM; macrophage viability in co-culture [9]: restoring full viability; IC50 [9]: 6680 nM; reduction in MIC80 upon addition of caspofungin [10]: ≥ 32 fold
Fc1ccc(-c2nc3cc(F)ccn3c2-c2ccncc2)cc1 [Compound 1f]	50 µM (≈ 15.4 µg/mL)			1400 nM	75%	robust anti-C. albicans bioactivity	filamentation of C. albicans [4]: inhibited filamentation; C. albicans in co-culture relative to compound-free controls ([8]; at or above 6.25 µM): ~ 50%; rescue of HepG2 viability (HepG2-fLuc cells; at or above 6.25 µM): partially rescued HepG2 viability; macrophage viability in co-culture [9]: restoring full viability; reduction in MIC80 upon addition of caspofungin [10]: ≥ 4 fold
Fc1ccc(-c2nc3cc(C(F)(F)F)ccn3c2-c2ccncc2)cc1 [Compound 1g]	> 100 µM	630 nM	13 fold	8400 nM	84%	loss of bioactivity	
Fc1ccc(-c2nc3cc(C4CC4)ccn3c2-c2ccncc2)cc1 [Compound 1h]	50 to 100 µM (≈ 16.5 to 32.9 µg/mL)	180 nM			0%		concentration at which bioactivity was retained (C. albicans (CaSS1); RPMI, 37 °C): 50 µM
CCCc1ccn2c(-c3ccncc3)c(-c3ccc(F)cc3)nc2c1 [Compound 1i]	> 100 µM				0%		
N#Cc1ccc2c(-c3ccncc3)c(-c3ccc(F)cc3)nn2c1 [Compound 2a]	12.5 µM (≈ 3.93 µg/mL)					robust anti-C. albicans bioactivity	filamentation of C. albicans [4]: inhibited filamentation; brain penetration [5]: accumulated in brain tissue at levels higher than the systemic circulation; Cmax [6]: ~15 µM; changes in animal weight or behavior [7]: no changes in animal weight or behavior were observed; reduction of C. albicans growth in co-culture [11]: most effective; C. albicans MIC80 (C. albicans (CaSS1); wild-type C. albicans, RPMI, 37 °C, 5% CO2, 48 h): 12.5 µM; macrophage viability in co-culture [9]: restoring full viability; IC50 [9]: 2170 nM; reduction in MIC80 upon addition of caspofungin [10]: ≥ 32 fold
Fc1ccc(-c2nn3cc(F)ccc3c2-c2ccncc2)cc1 [Compound 2b]	25 µM (≈ 7.68 µg/mL)					robust anti-C. albicans bioactivity	filamentation of C. albicans [4]: inhibited filamentation; concentrations giving mild reduction in HepG2 viability (HepG2-fLuc cells): > 12.5 µM; macrophage viability in co-culture [9]: restoring full viability; reduction in MIC80 upon addition of caspofungin [10]: ≥ 32 fold
Fc1ccc(-c2nn3cc(C(F)(F)F)ccc3c2-c2ccncc2)cc1 [Compound 2c]	> 100 µM	> 1000 nM				little to no whole-cell antifungal activity; also recorded: loss of bioactivity	CaYck2 IC50 [1]: above the maximum concentration tested
COc1ccc2c(-c3ccncc3)c(-c3ccc(F)cc3)nn2c1 [Compound 2d]	12.5 µM (≈ 3.99 µg/mL)					robust anti-C. albicans bioactivity	
Oc1ccc2c(-c3ccncc3)c(-c3ccc(F)cc3)nn2c1 [Compound 2e]	> 100 µM					no measurable whole-cell activity	
Cc1ccn2nc(-c3ccc(F)cc3)c(-c3ccncc3)c2c1 [Compound 2f]				2000 nM	1%		metabolic stability category [3]: unstable (compound concentration remaining in the microsomal suspension after incubation for 30 minutes was ≤ 50% of the starting concentration (1 μM))
Fc1ccc(-c2nn3ccc(C(F)(F)F)cc3c2-c2ccncc2)cc1 [Compound 2h]		> 1000 nM		> 15000 nM		little to no whole-cell antifungal activity	CaYck2 IC50 [1]: above the maximum concentration tested
Oc1ccn2nc(-c3ccc(F)cc3)c(-c3ccncc3)c2c1 [Compound 2k]	> 100 µM					no measurable whole-cell activity	
Fc1ccc(-c2nn3cccc(F)c3c2-c2ccncc2)cc1 [Compound 2m]	25 µM (≈ 7.68 µg/mL)		27 fold				
COc1cccn2nc(-c3ccc(F)cc3)c(-c3ccncc3)c12 [Compound 2n]	25 µM (≈ 7.98 µg/mL)	120 nM	41 fold	4900 nM	1%		
N#Cc1cccn2nc(-c3ccc(F)cc3)c(-c3ccncc3)c12 [Compound 2o]		> 1000 nM		> 15000 nM		little to no whole-cell antifungal activity	CaYck2 IC50 [1]: above the maximum concentration tested
Cc1ccc2c(-c3ccncc3)c(-c3ccc(F)cc3)nn2c1 [GW, GW461484A, reference compound]	12.5 µM (≈ 3.79 µg/mL)				< 1%		antifungal activity (Cryptococcus neoformans): possesses antifungal activity; filamentation of C. albicans [4]: inhibited filamentation; antifungal activity (C. auris): possesses antifungal activity; reduction of C. albicans growth in co-culture [11]: most effective; single-agent antifungal activity in vitro (Aspergillus fumigatus): no single-agent antifungal activity was observed; metabolic stability category [3]: unstable (compound concentration remaining in the microsomal suspension after incubation for 30 minutes was ≤ 50% of the starting concentration (1 μM)); macrophage viability in co-culture [9]: restoring full viability; IC50 [9]: 2050 nM; single-agent antifungal activity in vitro [12]: no single-agent antifungal activity was observed; reduction in MIC80 upon addition of caspofungin [10]: ≥ 32 fold
